Experimental findings from patent US20250179066A1, “ZWITTERIONIC ANTIBACTERIAL COMPOUNDS” (Hoffmann-La Roche Inc., priority 2022, published 2025) are described below.

As a reminder, the IC90 is the concentration needed for an effect of 90%.

SMILES strings stand for the structures.

The assay deals with Acinetobacter baumannii ATCC17961. The assay is described as follows: Antimicrobial susceptibility testing: 90% growth inhibitory concentration (IC90) determination. The note with it: Acinetobacter baumannii, ATCC17961, 16 h, 90% growth inhibitory concentration against Acinetobacter baumannii ATCC17961, Iso-Sensitest broth, OD 600 nm over 16 h; read-out: ATCC 17961 IC90. Type of assay: cell-based. The essentials: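 OD600 monitored each minute over 16 h at 35±2° C for bacteria (~5×10^5 CFU/mL final) in Iso-Sensitest medium with 10-point twofold compound series (e.g. 10-0.0195 μM final). Concentration giving 90% growth inhibition in log phase reported as IC90.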
`Cn1c(-c2cn(-c3cc4[nH]cc(C(=O)NCCO)c4cn3)nc2C(F)(F)F)cnc1C(=O)Nc1ccc(C(=O)N2CCN(C(=O)[C@H]3CC[N@+](CC(=O)O)(CC4CNC4)CC3)CC2)c(Cl)c1` [Example 146, cis-2-[1-(azetidin-3-ylmethyl)-4-[4-[2-chloro-4-[[5-[1-[3-(2-hydroxyethylcarbamoyl)-1H-pyrrolo[3,2-c]pyridin-6-yl]-3-(trifluoromethyl)pyrazol-4-yl]-1-methyl-imidazole-2-carbonyl]amino]benzoyl]piperazine-1-carbonyl]piperidin-1-ium-1-yl]acetic acid. 1:1 2,2,2-trifluoroacetate]: the IC90 came to 311 nM. With `Cn1c(-c2cn(-c3cc4[nH]cc(C(=O)N5CCNCC5)c4cn3)nc2C(F)(F)F)cnc1C(=O)Nc1ccc(C(=O)N2CCN(C(=O)[C@H]3CC[N@+](CC(=O)O)(CC4CNC4)CC3)CC2)c(Cl)c1` [Example 147, cis-2-[1-(azetidin-3-ylmethyl)-4-[4-[2-chloro-4-[[1-methyl-5-[1-[3-(piperazine-1-carbonyl)-1H-pyrrolo[3,2-c]pyridin-6-yl]-4-(trifluoromethyl)pyrazol-4-yl]imidazole-2-carbonyl]amino]benzoyl]piperazine-1-carbonyl]piperidin-1-ium-1-yl]acetic acid. 1:1 2,2,2-trifluoroacetate] the figure was 181 nM; with `CN1CCN(C(=O)c2c[nH]c3cc(-n4cc(-c5cnc(C(=O)Nc6ccc(C(=O)N7CCN(C(=O)[C@H]8CC[N@+](CC(=O)O)(CC9CNC9)CC8)CC7)c(Cl)c6)n5C)c(C(F)(F)F)n4)ncc23)CC1` [Example 148, cis-2-[1-(azetidin-3-ylmethyl)-4-[4-[2-chloro-4-[[1-methyl-5-[1-[3-(4-methylpiperazine-1-carbonyl)-1H-pyrrolo[3,2-c]pyridin-6-yl]-3-(trifluoromethyl)pyrazol-4-yl]imidazole-2-carbonyl]amino]benzoyl]piperazine-1-carbonyl]piperidin-1-ium-1-yl]acetic acid. 1:1 2,2,2-trifluoroacetate], 349 nM; with `Cn1c(-c2cn(-c3cc4nn(CC(N)=O)cc4cn3)nc2C(F)(F)F)cnc1C(=O)Nc1ccc(C(=O)N2CCN(C(=O)[C@H]3CC[N@+](CC(=O)O)(CC4CNC4)CC3)CC2)c(Cl)c1` [Example 149, cis-2-[4-[4-[4-[[5-[1-[2-(2-amino-2-keto-ethyl)pyrazolo[4,3-c]pyridin-6-yl]-3-(trifluoromethyl)pyrazol-4-yl]-1-methyl-imidazole-2-carbonyl]amino]-2-chloro-benzoyl]piperazine-1-carbonyl]-1-(azetidin-3-ylmethyl)piperidin-1-ium-1-yl]acetic acid. 1:1 2,2,2-trifluoroacetate], 744 nM. Take `C[C@@H](O)c1cc2nc(-n3cc(-c4cnc(C(=O)Nc5ccc(C(=O)N6CCN(C(=O)[C@H]7CC[N@+](CC(=O)O)(CC8CNC8)CC7)CC6)c(Cl)c5)n4C)c(C(F)(F)F)n3)ccc2[nH]1` [Example 150, cis-2-[1-(azetidin-3-ylmethyl)-4-[4-[2-chloro-4-[[5-[1-[2-[(1R)-1-hydroxyethyl]-1H-pyrrolo[3,2-b]pyridin-5-yl]-3-(trifluoromethyl)pyrazol-4-yl]-1-methyl-imidazole-2-carbonyl]amino]benzoyl]piperazine-1-carbonyl]piperidin-1-ium-1-yl]acetic acid;formate]: the IC90 came out at 217 nM. For `Cn1c(-c2cn(-c3ccc4[nH]c(CO)cc4n3)nc2C(F)(F)F)cnc1C(=O)Nc1ccc(C(=O)N2CCN(C(=O)[C@H]3CC[N@+](CC(=O)O)(CC4CNC4)CC3)CC2)c(F)c1` [Example 151, cis-2-[1-(azetidin-3-ylmethyl)-4-[4-[2-fluoro-4-[[1-methyl-5-[1-(2-methylol-1H-pyrrolo[3,2-b]pyridin-5-yl)-3-(trifluoromethyl)pyrazol-4-yl]imidazole-2-carbonyl]amino]benzoyl]piperazine-1-carbonyl]piperidin-1-ium-1-yl]acetic acid. 1:1 2,2,2-trifluoroacetate], the IC90 was 403 nM.
